The text below walks through data of ChEMBL document CHEMBL1201862, “PubChem BioAssay data set” (2004).

The source made the active and inactive calls. Where only a bound is given, the exact number is not on record here.

Experiment [1] is described as follows: Luminescence Cell-Based Dose Retest to Confirm Inhibitors of Cancer Stem Cells. [Related pubchem assays (depositor defined):AID2717, AID2721]. The class given is functional. To be noted: Homo sapiens.
The nature of experiment [2]: viability loss of HMLE_sh_eGFP cells – cell-based, luminescence, counter-screen for HMLE_sh_ECad selective toxicity project, dose response (AID 463074).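 Also: HMLE human mammary epithelial cells expressing control shRNA against eGFP.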 The format is functional, Homo sapiens. For orientation: The purpose of a counterscreen is to sort out artefacts and off-target activity.
The subject of experiment [3] is HEK293. Put plainly: cells. To be noted: Homo sapiens.
The subject of experiment [4] is HEK293. Put plainly: cells. Conditions: Homo sapiens. The source holds these as a separate data set.
For experiment [5], the target named is Dual specificity protein phosphatase 3 (Homo sapiens, UniProt P51452). Put plainly: SAR VHR1 Fluorescent Assay for In Vitro dose response studies Set 3. [Related pubchem assays (depositor defined):AID1654, AID1661, AID1878]. The class given is functional.
Sequence of Dual specificity protein phosphatase 3 (P51452 whole entry): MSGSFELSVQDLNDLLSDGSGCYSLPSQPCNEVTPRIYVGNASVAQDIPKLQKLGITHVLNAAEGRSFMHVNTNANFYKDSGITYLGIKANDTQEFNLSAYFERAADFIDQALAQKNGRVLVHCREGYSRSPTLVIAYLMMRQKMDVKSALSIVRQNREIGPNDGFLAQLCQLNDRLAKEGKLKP
In experiment [6] the test system is Jurkat. Nature of the experiment: SAR Analysis of small molecule inhibitors of […] specific antigen receptor-induced NF-kB activation in a Jurkat cell line using a luminescence assay - Set 3. [Related pubchem assays (depositor defined):AID435022, AID435025, AID465]. The format is functional, cell-based. To be noted: Homo sapiens.
Experiment [7] concerns HEK293. Nature of the experiment: SAR Analysis of small molecule inhibitors of B-cell specific antigen receptor-induced NF-kB activation in a HEK-293T cell line using a luminescence assay - Set 2. [Related pubchem assays (depositor defined):AID435022, AID435025, AID489021]. The class given is functional, cell-based. To be noted: Homo sapiens.
The subject of experiment [8] is HEK293. Put plainly: HEK293T cell viability loss, resazurin readout – resazurin fluorescence, cytotoxicity control for NF-kB activator project, SAR follow-up (AID 493251). The format is functional, cell-based. To be noted: Homo sapiens.
The target in experiment [9] is T1, Beta Lactamase (Pseudomonas aeruginosa, UniProt Q932Y6).
T1 sequence (Q932Y6 whole entry): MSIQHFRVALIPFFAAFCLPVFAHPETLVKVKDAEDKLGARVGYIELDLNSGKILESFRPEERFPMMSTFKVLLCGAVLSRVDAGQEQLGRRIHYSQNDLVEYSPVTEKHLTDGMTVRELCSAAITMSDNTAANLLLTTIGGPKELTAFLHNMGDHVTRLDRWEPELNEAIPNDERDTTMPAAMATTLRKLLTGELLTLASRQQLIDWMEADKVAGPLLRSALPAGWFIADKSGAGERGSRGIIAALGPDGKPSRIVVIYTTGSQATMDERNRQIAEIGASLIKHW
Experiment [10] deals with Streptococcus sp. 'group A'. Put plainly: Streptococcus pyogenes SK(-)GAS viability under kanamycin – luminescence, BacTiterGlo, confirmation, counter-screen for streptokinase expression inhibitor project, dose response (AID 1900). The format is functional, organism-based.
The target in experiment [11] is T2, Streptokinase A (Streptococcus pyogenes serotype M1, UniProt P10520).
T2 sequence (P10520 whole entry): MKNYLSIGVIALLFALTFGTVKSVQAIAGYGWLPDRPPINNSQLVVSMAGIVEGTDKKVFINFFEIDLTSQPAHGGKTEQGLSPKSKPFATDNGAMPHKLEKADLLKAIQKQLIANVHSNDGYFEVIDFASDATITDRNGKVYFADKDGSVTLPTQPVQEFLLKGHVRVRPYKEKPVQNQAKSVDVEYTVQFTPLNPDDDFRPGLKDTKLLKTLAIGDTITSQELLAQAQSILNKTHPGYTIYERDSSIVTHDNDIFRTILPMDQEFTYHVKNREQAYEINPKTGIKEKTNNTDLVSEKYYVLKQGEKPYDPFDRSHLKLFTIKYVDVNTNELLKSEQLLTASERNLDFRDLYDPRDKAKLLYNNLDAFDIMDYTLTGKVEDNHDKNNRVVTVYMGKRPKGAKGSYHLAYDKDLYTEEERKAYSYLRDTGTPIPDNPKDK
Put plainly: viability-normalized secreted streptokinase activity reduction – plasminogen activation absorbance, OD405, dose response (AID 1914).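 Also: secreted streptokinase activity via plasminogen activation per viability signal from cell pellet.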 The class given is functional, Streptococcus pyogenes M1 GAS.

Experiment [12] concerns the target Beta-lactamase (Pseudomonas aeruginosa, UniProt Q79MP6).
For experiment [13], the target named is Beta-lactamase (Salmonella choleraesuis (strain SC-B67), UniProt Q5J463).
Sequence of Beta-lactamase (Salmonella choleraesuis (strain SC-B67), UniProt Q5J463) (Q5J463 whole entry): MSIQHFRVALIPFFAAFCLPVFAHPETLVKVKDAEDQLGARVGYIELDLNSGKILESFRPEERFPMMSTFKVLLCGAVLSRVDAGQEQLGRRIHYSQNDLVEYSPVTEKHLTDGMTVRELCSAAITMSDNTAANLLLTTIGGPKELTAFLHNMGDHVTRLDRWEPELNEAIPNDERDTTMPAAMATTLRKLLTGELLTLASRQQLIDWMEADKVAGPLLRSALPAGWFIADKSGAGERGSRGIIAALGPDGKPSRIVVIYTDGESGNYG
The test system of experiment [14] is Streptococcus. Nature of the experiment: GAS UMAA2166 growth inhibition – luminescence, BacTiterGlo, counter-screen for streptokinase expression inhibitor project, dose response (AID 1915).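 Also: potency for reduction of bacterial viability or growth.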 The format is functional, organism-based.
Experiment [15] has as its system HeLa. Put plainly: viability loss in HeLa cells – cell-based, 24 h, cherry-picked samples, cytotoxicity control, dose response (AID 504726). The format is functional. Conditions: Homo sapiens.
The target of experiment [16] is ORF 73 (Human herpesvirus 8, UniProt O40947). Nature of the experiment: KSHV LANA DNA-binding disruption – biochemical, fluorescence polarization, cherry-picked samples, dose response (AID 504725).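 Also: fluorescence polarization of a labeled DNA duplex reporting LANA DNA binding; potency is for inhibitors that block LANA binding to the DNA.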 Further details: species or system Human gammaherpesvirus 8. (Fluorescence polarisation rises when a labelled molecule tumbles more slowly, as on binding a larger partner.)
Sequence of ORF 73 (O40947 whole entry): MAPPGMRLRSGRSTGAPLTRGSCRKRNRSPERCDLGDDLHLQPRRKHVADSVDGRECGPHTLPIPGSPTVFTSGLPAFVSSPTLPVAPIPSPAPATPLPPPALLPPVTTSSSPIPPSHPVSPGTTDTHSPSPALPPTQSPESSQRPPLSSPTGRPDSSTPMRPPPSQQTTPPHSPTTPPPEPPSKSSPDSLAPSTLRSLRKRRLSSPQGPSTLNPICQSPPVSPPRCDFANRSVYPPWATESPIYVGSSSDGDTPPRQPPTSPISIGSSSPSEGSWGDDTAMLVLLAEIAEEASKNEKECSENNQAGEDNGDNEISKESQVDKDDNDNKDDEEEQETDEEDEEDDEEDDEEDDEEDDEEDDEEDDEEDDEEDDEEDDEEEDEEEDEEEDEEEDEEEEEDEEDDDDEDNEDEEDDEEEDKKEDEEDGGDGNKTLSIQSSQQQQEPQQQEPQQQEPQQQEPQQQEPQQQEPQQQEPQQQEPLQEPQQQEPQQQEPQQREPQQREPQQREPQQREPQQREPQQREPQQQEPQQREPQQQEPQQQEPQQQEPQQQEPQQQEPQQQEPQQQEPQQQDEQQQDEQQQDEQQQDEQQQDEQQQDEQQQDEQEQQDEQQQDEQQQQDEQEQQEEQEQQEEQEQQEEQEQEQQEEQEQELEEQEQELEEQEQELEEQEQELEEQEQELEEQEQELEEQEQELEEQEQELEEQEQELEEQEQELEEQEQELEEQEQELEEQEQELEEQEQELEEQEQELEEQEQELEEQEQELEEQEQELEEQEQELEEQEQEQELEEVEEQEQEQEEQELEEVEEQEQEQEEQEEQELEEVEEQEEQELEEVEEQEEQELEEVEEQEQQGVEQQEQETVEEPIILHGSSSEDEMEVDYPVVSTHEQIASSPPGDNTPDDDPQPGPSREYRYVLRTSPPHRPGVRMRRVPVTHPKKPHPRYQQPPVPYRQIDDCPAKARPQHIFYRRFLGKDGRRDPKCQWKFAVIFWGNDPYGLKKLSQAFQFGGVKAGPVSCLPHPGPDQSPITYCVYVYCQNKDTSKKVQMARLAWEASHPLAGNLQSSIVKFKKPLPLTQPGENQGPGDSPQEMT

For experiment [17], the target named is T3, Heat shock factor protein 1 (Mus musculus, UniProt P38532).
T3 sequence (P38532 whole entry): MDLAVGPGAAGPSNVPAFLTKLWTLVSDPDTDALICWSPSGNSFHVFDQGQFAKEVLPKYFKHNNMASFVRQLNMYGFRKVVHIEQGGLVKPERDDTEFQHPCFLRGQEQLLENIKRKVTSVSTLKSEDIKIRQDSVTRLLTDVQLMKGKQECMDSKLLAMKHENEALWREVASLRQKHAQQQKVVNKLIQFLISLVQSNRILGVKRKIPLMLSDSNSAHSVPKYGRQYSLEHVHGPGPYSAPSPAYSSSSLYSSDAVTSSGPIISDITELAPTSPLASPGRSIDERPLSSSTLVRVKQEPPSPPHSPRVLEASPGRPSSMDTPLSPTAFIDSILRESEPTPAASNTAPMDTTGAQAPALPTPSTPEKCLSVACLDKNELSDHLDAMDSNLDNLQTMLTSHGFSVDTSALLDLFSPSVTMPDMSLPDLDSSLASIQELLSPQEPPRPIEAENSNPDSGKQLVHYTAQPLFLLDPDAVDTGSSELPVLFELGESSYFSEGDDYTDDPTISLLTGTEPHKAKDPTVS
Put plainly: enhancement of HSF1-driven luciferase signal – cell-based, NIH3T3, luminescence, dose retest, confirmation (AID 435004).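 Also: stress induced by proteasome inhibitor MG132 added 30 min after compound; luciferase reporter driven by HSF1 response element in NIH3T3 cells; actives raise luminescence as potentiators of the MG132 stress response.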 The format is functional.

In experiment [18] the test system is CHO. Put plainly: CHO cell viability loss, potency – luminescence, cytotoxicity control for TLR9-MyD88 binding inhibitor project, dose response (AID 588339).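 Also: CHO cells stably coexpressing TLR9 and MyD88 fusions from primary screen; compound exposure lasted 48 hours before viability readout.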 The format is functional, cell-based, hamster. Conditions: Cricetulus griseus.
The target of experiment [19] is UDP-galactopyranose mutase (Mycobacterium tuberculosis, UniProt P9WIQ1). Nature of the experiment: Inhibitors of Mycobacterium tuberculosis UDP-galactopyranose mutase (UGM) enzyme Measured in Biochemical System Using Plate Reader - 2105-02_Inhibitor_Dose_CherryPick_Activity. [Related pubchem assays (depositor defined):AID504439].
Sequence of UDP-galactopyranose mutase (P9WIQ1 whole entry): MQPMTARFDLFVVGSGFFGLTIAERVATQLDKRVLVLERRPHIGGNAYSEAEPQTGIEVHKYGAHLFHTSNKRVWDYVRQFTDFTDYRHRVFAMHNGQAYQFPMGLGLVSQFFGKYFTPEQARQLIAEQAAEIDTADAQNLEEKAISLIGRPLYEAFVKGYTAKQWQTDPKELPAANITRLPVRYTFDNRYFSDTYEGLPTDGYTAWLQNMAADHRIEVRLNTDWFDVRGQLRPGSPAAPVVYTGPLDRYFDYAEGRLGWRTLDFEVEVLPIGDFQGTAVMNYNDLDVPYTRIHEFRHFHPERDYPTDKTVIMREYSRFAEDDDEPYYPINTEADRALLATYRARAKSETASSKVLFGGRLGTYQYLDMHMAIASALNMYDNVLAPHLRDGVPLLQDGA
The target in experiment [20] is T4, Insulin-degrading enzyme (Homo sapiens, UniProt P14735).
T4 sequence (P14735 whole entry): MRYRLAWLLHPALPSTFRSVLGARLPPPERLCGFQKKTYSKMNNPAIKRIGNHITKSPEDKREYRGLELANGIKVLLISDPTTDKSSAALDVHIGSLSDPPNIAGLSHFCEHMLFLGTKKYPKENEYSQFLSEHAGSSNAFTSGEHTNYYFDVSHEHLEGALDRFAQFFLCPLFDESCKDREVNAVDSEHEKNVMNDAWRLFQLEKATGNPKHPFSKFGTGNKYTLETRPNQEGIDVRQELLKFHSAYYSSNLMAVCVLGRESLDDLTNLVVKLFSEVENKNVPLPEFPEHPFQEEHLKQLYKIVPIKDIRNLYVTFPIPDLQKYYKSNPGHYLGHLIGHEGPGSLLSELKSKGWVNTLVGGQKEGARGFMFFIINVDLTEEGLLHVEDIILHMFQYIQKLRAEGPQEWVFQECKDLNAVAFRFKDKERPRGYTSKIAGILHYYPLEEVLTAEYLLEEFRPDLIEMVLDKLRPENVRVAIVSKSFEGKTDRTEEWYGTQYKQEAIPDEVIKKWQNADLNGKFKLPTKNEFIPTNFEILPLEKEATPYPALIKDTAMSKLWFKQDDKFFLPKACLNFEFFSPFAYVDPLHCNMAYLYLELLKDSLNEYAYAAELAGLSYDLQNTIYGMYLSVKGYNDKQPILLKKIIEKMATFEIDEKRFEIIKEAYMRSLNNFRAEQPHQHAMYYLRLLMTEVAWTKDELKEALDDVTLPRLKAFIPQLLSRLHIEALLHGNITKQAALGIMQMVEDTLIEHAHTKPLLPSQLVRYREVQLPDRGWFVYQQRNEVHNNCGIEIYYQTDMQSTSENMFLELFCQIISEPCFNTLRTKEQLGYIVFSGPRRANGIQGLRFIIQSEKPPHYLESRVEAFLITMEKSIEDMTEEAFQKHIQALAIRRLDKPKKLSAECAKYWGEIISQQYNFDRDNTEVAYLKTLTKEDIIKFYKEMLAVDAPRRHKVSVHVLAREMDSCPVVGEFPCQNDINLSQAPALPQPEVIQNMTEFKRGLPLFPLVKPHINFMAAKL
Nature of the experiment: recombinant IDE activation, cell-free – biochemical, fluorescence polarization, counter-screen for IDE activator project, dose response (AID 588681).

Experiment [21] has as its target Keap1/Nrf2 (Homo sapiens, UniProt Q14145). Put plainly: disruptors of Keap1 binding to Nrf2 peptide – biochemical, fluorescence polarization, cherry-picked samples, dose response (AID 588683).
The target of experiment [22] is T1, Beta Lactamase. Nature of the experiment: BLA reporter interference, concentration series – BLA reporter cells, FRET fluorescence, artefact control for TLR9-MyD88 binding inhibitor project, dose response (AID 588341).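 Also: cell based assay in CHO-K1 cells stably expressing beta-lactamase.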 The class given is cell-based.
The target in experiment [23] is T4, Insulin-degrading enzyme. Put plainly: cellular IDE activation of Abeta substrate cleavage – fluorescence polarization, HEK cells, dose response (AID 588439). The format is functional, cell-based.
Experiment [24] relates to HEK293. Nature of the experiment: membrane integrity loss in HEK cells – cell-based, fluorescence, cytotoxicity control for IDE activator project, dose response (AID 588440).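 Also: cytotoxicity by LDH release measuring loss of membrane integrity.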 The class given is functional. To be noted: Homo sapiens.
Experiment [25] has as its system HEK293. Nature of the experiment: optical interference in Abeta FP readout, dose response, artefact control for IDE activator project, biochemical, fluorescence polarization (AID 588442). The class given is functional, cell-based. Conditions: Homo sapiens.

Sequence of Keap1/Nrf2 (Q16236 whole entry): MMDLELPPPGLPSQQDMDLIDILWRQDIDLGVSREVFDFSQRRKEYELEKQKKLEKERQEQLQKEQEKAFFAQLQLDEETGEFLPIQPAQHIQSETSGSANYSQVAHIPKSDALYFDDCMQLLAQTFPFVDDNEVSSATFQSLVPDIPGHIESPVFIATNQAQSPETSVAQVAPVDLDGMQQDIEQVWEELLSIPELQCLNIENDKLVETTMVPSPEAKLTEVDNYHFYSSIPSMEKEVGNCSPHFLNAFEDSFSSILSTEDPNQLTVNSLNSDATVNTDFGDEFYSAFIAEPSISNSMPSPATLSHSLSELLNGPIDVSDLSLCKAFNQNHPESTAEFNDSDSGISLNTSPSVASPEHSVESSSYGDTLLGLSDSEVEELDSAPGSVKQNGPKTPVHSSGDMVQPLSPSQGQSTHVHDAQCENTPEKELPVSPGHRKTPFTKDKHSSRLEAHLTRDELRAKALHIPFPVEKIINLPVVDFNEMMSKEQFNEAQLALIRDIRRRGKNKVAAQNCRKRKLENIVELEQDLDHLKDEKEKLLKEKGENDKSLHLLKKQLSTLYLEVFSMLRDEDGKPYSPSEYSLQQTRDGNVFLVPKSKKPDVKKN
Sequence of Keap1/Nrf2 (Q14145 whole entry): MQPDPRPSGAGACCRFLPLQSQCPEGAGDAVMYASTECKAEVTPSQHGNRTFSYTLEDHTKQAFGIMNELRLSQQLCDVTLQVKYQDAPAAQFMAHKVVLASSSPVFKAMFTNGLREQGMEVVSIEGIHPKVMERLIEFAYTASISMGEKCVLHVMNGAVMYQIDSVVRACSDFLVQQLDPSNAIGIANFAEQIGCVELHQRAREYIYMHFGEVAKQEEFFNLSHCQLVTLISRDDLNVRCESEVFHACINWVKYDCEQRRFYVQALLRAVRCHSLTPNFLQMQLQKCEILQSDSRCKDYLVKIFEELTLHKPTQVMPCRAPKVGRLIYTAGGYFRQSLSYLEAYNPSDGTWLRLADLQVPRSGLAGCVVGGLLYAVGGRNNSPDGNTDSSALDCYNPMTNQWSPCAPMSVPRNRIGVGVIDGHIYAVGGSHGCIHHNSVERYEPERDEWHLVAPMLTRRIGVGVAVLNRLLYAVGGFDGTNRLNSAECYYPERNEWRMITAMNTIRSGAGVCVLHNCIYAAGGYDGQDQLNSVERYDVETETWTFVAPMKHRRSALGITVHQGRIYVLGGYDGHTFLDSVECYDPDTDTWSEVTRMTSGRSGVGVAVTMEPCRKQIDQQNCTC
Sequence of Beta-lactamase (Pseudomonas aeruginosa, UniProt Q79MP6) (Q79MP6 whole entry): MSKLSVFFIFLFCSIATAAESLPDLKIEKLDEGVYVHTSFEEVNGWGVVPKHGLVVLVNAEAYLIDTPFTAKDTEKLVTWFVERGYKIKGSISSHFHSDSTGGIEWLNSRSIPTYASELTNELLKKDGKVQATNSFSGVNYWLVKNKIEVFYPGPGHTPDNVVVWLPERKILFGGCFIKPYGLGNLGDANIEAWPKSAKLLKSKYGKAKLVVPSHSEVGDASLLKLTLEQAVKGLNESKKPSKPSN

What is called AC50 is the midpoint of the concentration-response curve, whichever way the signal moves. Regarding `O=C(CSc1ccc(F)cc1)N1CCC(c2nc3ccccc3s2)CC1`, the values for the AC50 in experiment [1] and in experiment [2] were 40.5 µM (active) and 26.9 µM (active), respectively.

For orientation: EC50 means the concentration at which the effect is half-maximal. For the compound `COc1ccc(N2C(=O)NC(NC(=O)C(C)(C)C)(C(F)(F)F)C2=O)cc1` (stereo not given), the EC50 in experiment [3] and in experiment [4] was > 59.7 µM (inactive) throughout.

As a reminder, the IC50 is the concentration that inhibits the measured activity by half. In the case of `Cc1ccc(C(=O)NC(=S)Nc2ccc(Cl)c(-c3nc4ccccc4s3)c2)cc1`, in [5], the IC50 was > 66 µM (inactive).

As for `CC(C)(C)c1ccc(-c2noc(CCC(=O)NC3CCCC3)n2)cc1`, the IC50 in experiment [6] was 0.48 µM (active); in experiment [7], 0.78 µM (active); in [8], > 80 µM (inactive).

On to `CCCC/N=C1\C(=O)N(C)c2cccc3c(O)c4ccccc4c1c23`, for which the IC50 in [9] is 11.9 µM (inactive); in experiment [12], 14.3 µM (inactive); in experiment [13], 4.28 µM (active); in experiment [18], 20.1 µM (inactive); in experiment [22], 9.06 µM (active); in experiment [24], > 89.2 µM (inactive). Moreover, the EC50 was 6.81 µM (active) in [10]; 21.4 µM (active) in experiment [11]; 35.4 µM (active) in experiment [14]; 56.5 µM (active) in experiment [17]; > 54.7 µM (inactive) in [20]; > 54.7 µM (inactive) in [23]. Moreover, the EC50 in [25] was > 54.7 µM (inactive). The AC50 is > 350 µM (inactive) in experiment [15], 4.99 µM (active) in experiment [16], 1.04 µM (active) in experiment [19] and 1.13 µM (active) in experiment [21].
